{"source": "patent US12257243B2", "about": "“5-hydroxy-7-oxabicyclo[2.2.1]heptane-2-carboxamide derivatives for inducing chondrogenesis for treating joint damage” (NOVARTIS AG, priority 2018, dated 2025)", "system": "ALP in normal human articular chondrocytes (NHACs)", "test": "Alkaline Phosphatase (ALP) activity assay (staining and quantitation) in NHACs, prevention of chondrocyte hypertrophy", "assay_type": "cell-based", "conditions": "human IL-1 beta 10 ng/mL, 12 days; for IC50: Fast Blue RR staining, high content imaging, read-out: ALP in NHAC IC50; for Emax / ALP in NHAC (% Efficacy): value in parentheses; for Emax: read-out: ALP in NHAC (% Efficacy)", "protocol": "The compounds of the present invention were evaluated in the Alkaline Phosphatase (ALP) activity assay to determine the ability of the compounds to prevent chondrocyte hypertrophy in normal human articular chondrocytes (NHACs).\nNormal human articular chondrocytes (NHACs) were purchased from PromoCell (Heidelberg, Germany) and grown in Chondrocyte Growth Medium (CGM; Lonza, Walkersville, Md.).\nNHACs were expanded in Chondrocyte Growth Medium (CGM) from Lonza until they reached a 60-80% confluency. To initiate differentiation, 7,500 cells were plated/well with indicated test compound dose in 384-well Cell Carrier Ultra plates (Perkin Elmer) with DMEM (SH30022—HyClone) containing 10% FBS (35-015-CV—Corning), 1% Pen/Strep antibiotics (SV30010—HyClone), and 1% Normocin (50 mg/mL—InvivoGen). Cells with test compounds were incubated at 37° C., 5% CO2 for 5 hours and then added human IL-1 beta (AF-200-1B—Peprotech) to each well at a final concentration of 10 ng/mL and incubated at 37° C., 5% CO2 for 12 days.\nTo detect the presence of hypertrophic cells, NHACs were fixed with 4% paraformaldehyde and Hoechst 33342 (Invitrogen) dye for 30 minutes, rinsed in PBS, then stained with Fast Blue RR Salt (F0500—Sigma) with Naphthol AS-MX Phosphate Alkaline Solution, 0.25% (855—Sigma-Aldrich).\nThe staining was imaged by fluorescent microscopy, using the 561 nm wavelength, and/or quantified by high content imaging with the Image press Confocal (Molecular Devices, Sunnyvale, Calif.). Data analyses were performed with a customized multiwavelength cell-scoring application.", "note": "Read-outs that look alike come from different tables or passages of the source.", "data": [{"compound": "COc1cc([C@H]2[C@H]3O[C@H](C[C@@H]3O)[C@@H]2C(=O)Nc2cc(C(F)(F)F)ccc2F)ccn1", "note": "(racemic) [Example 76, rac-(1R,2R,3S,4R,5S)—N-(2-fluoro-5-(trifluoromethyl)phenyl)-5-hydroxy-3-(2-methoxypyridin-4-yl)-7-oxabicyclo[2.2.1]heptane-2-carboxamide]", "values": [{"measurement": "IC50", "setting": "Chondrocyte, 288 h", "result": 7.2, "unit": "µM"}, {"measurement": "Emax", "setting": "Chondrocyte, 288 h", "result": 53, "unit": "%"}]}, {"compound": "Cc1ccc(NC(=O)[C@@H]2[C@@H](c3cccc(C(F)(F)F)c3)[C@H]3O[C@@H]2C[C@@H]3O)cc1C(F)(F)F", "note": "(racemic) [Example 12, rac-(1R,2R,3S,4R,5S)-5-hydroxy-N-(4-methyl-3-trifluoromethylphenyl)-3-(3-(trifluoromethyl)phenyl)-7-oxabicyclo[2.2.1]heptane-2-carboxamide]", "values": [{"measurement": "IC50", "setting": "Chondrocyte, 288 h", "result": 9.8, "unit": "µM"}, {"measurement": "Emax", "setting": "Chondrocyte, 288 h", "result": 102, "unit": "%"}]}, {"compound": "O=C(Nc1cc(C(F)(F)F)ccc1F)[C@@H]1[C@@H](c2cccc(C(F)(F)F)c2)[C@H]2O[C@@H]1C[C@@H]2O", "note": "(racemic) [Example 1, rac-(1R,2R,3S,4R,5S)—N-(2-fluoro-5-(trifluoromethyl)phenyl)-5-hydroxy-3-(3-(trifluoromethylphenyl)-7-oxabicyclo[2.2.1]heptane-2-carboxamide]", "values": [{"measurement": "IC50", "setting": "Chondrocyte, 288 h", "result": 29, "unit": "µM"}, {"measurement": "Emax", "setting": "Chondrocyte, 288 h", "result": 60, "unit": "%"}]}, {"compound": "Cn1nc(C(F)(F)F)cc1[C@H]1[C@H]2O[C@H](C[C@@H]2O)[C@@H]1C(=O)Nc1ccc(C(F)(F)F)c(Cl)c1", "note": "(racemic) [Example 73, rac-(1R,2R,3S,4R,5)-N-(3-chloro-4-trifluoromethyl)phenyl)-5-hydroxy-3-(1-methyl-3-(trifluoromethyl)-1H-pyrazol-5-yl)-7-oxabicyclo[2.2.1]heptane-2-carboxamide]", "values": [{"measurement": "IC50", "setting": "Chondrocyte, 288 h", "result": 7.1, "unit": "µM"}, {"measurement": "Emax", "setting": "Chondrocyte, 288 h", "result": 105, "unit": "%"}]}, {"compound": "O=C(Nc1cccc(C(F)(F)F)c1)[C@@H]1[C@@H](c2cnc(C(F)(F)F)nc2)[C@H]2O[C@@H]1C[C@@H]2O", "note": "(racemic) [Example 83, rac-(1R,2R,3S,4R,5S)-5-hydroxy-N-(3-(trifluoromethyl)phenyl)-3-(2-(trifluoromethyl)pyrimidin-5-yl)-7-oxabicyclo[2.2.1]heptane-2-carboxamide]", "values": [{"measurement": "IC50", "setting": "Chondrocyte, 288 h", "result": 24, "unit": "µM"}, {"measurement": "Emax", "setting": "Chondrocyte, 288 h", "result": 43, "unit": "%"}]}, {"compound": "CC(C)n1cc([C@H]2[C@H]3O[C@H](C[C@@H]3O)[C@@H]2C(=O)Nc2cc(C(F)(F)F)ccn2)c(C(F)(F)F)n1", "note": "(racemic) [Example 86, rac-(1R,2R,3S,4R,5S)-5-hydroxy-3-(1-isopropyl-3-(trifluoromethyl)-1H-pyrazol-4-yl)-N-(4-(trifluoromethyl)pyridin-2-yl)-7-oxabicyclo[2.2.1]heptane-2-carboxamide]", "values": [{"measurement": "IC50", "setting": "Chondrocyte, 288 h", "result": 11, "unit": "µM"}, {"measurement": "Emax", "setting": "Chondrocyte, 288 h", "result": 83, "unit": "%"}]}, {"compound": "CC(C)n1cc([C@H]2[C@H]3O[C@H](C[C@@H]3O)[C@@H]2C(=O)Nc2ccc(C(F)(F)F)c(Cl)c2)c(C(F)(F)F)n1", "note": "(racemic) [Example 87, rac-(1R,2R,3S,4R,5S)—N-(3-chloro-4-trifluoromethyl)phenyl)-5-hydroxy-3-(1-isopropyl-3-(trifluoromethyl)-1H-pyrazol-4-yl)-7-oxabicyclo[2.2.1]heptane-2-carboxamide]", "values": [{"measurement": "IC50", "setting": "Chondrocyte, 288 h", "result": 14, "unit": "µM"}, {"measurement": "Emax", "setting": "Chondrocyte, 288 h", "result": 64, "unit": "%"}]}, {"compound": "COc1ccc(C(F)(F)F)cc1NC(=O)[C@@H]1[C@@H](c2cn(C)nc2C(F)(F)F)[C@H]2O[C@@H]1C[C@@H]2O", "note": "(racemic) [Example 33, rac-(1R,2R,3S,4R,5)-5-hydroxy-N-(2-methoxy-5-(trifluoromethyl)phenyl)-3-(1-methyl-3-(trifluoromethyl)-1H-pyrazol-4-yl)-7-oxabicyclo[2.2.1]heptane-2-carboxamide]", "values": [{"measurement": "IC50", "setting": "Chondrocyte, 288 h", "result": 2.8, "unit": "µM"}, {"measurement": "Emax", "setting": "Chondrocyte, 288 h", "result": 74, "unit": "%"}]}, {"compound": "Cn1nc(C(F)(F)F)cc1[C@H]1[C@H]2O[C@H](C[C@@H]2O)[C@@H]1C(=O)Nc1cc(C(F)(F)F)ccc1C#N", "note": "(single isomer, unassigned) [Example 72a, (1R,2R,3S,4R,5S)—N-(2-cyano-5-(trifluoromethyl)phenyl)-5-hydroxy-3-(1-methyl-3-(trifluoromethyl)-1H-pyrazol-5-yl)-7-oxabicyclo[2.2.1]heptane-2-carboxamide or (1S,2S,3R,4S,5R)—N-(2-cyano-5-(trifluoromethyl)phenyl)-5-hydroxy-3-(1-methyl-3-(trifluoromethyl)-1-pyrazol-5-yl)-7-oxabicyclo[2.2.1]heptane-2-carboxamide]", "values": [{"measurement": "IC50", "result": 3.1, "unit": "µM"}, {"measurement": "ALP in NHAC (% Efficacy)", "result": 107, "unit": "%"}]}, {"compound": "Cn1cc([C@H]2[C@H]3O[C@H](C[C@@H]3O)[C@@H]2C(=O)Nc2cc(C(F)(F)F)cc(Cl)n2)c(C(F)(F)F)n1", "note": "(racemic) [Example 35, rac-(1R,2R,3S,4R,5S)—N-(6-chloro-4-(trifluoromethyl)pyridin-2-yl)-5-hydroxy-3-(1-methyl-3-(trifluoromethyl)-1H-pyrazol-4-yl)-7-oxabicyclo[2.2.1]heptane-2-carboxamide]", "values": [{"measurement": "IC50", "setting": "Chondrocyte, 288 h", "result": 9.8, "unit": "µM"}, {"measurement": "Emax", "setting": "Chondrocyte, 288 h", "result": 83, "unit": "%"}]}, {"compound": "N#Cc1ccc(NC(=O)[C@@H]2[C@@H](c3cccc(C(F)(F)F)c3)[C@H]3O[C@@H]2C[C@@H]3O)cc1C(F)(F)F", "note": "(racemic) [Example 46, rac-(1R,2R,3S,4R,5S)—N-(4-cyano-3-trifluoromethyl)phenyl)-5-hydroxy-3-(3-(trifluoromethyl)phenyl)-7-oxabicyclo[2.2.1]heptane-2-carboxamide]", "values": [{"measurement": "IC50", "setting": "Chondrocyte, 288 h", "result": 14, "unit": "µM"}, {"measurement": "Emax", "setting": "Chondrocyte, 288 h", "result": 50, "unit": "%"}]}, {"compound": "Cn1nc(C(F)(F)F)cc1[C@H]1[C@H]2O[C@H](C[C@@H]2O)[C@@H]1C(=O)Nc1cc(C(F)(F)F)ccn1", "note": "(racemic) [Example 74, rac-(1R,2R,3,4R,5)-5-hydroxy-3-(1-methy-3-(trifluoromethyl)-1H-pyrazol-5-yl)-N-(4-(trifluoromethyl)pyridin-2-yl-7-oxabicyclo[2.2.1]heptane-2-carboxamide]", "values": [{"measurement": "IC50", "setting": "Chondrocyte, 288 h", "result": 11, "unit": "µM"}, {"measurement": "Emax", "setting": "Chondrocyte, 288 h", "result": 64, "unit": "%"}]}, {"compound": "O=C(Nc1ccc(Cl)c(C(F)(F)F)c1)[C@@H]1[C@@H](c2cccc(C(F)(F)F)c2)[C@H]2O[C@@H]1C[C@@H]2O", "note": "(racemic) [Example 18, rac-(1R,2R,3S,4R,5)-N-(4-chloro-3-(trifluoromethyl)phenyl)-5-hydroxy-3-(3-(trifluoromethyl)phenyl)-7-oxabicyclo[2.2.1]heptane-2-carboxamide]", "values": [{"measurement": "IC50", "setting": "Chondrocyte, 288 h", "result": 8, "unit": "µM"}, {"measurement": "Emax", "setting": "Chondrocyte, 288 h", "result": 102, "unit": "%"}]}, {"compound": "COc1cc([C@H]2[C@H]3O[C@H](C[C@@H]3O)[C@@H]2C(=O)Nc2cc(C(F)(F)F)ccc2C#N)ccn1", "note": "(racemic) [Example 78, rac-(1R,2R,3S,4R,5)-N-(2-cyano-5-trifluoromethyl)phenyl)-5-hydroxy-3-(2-methoxypyridin-4-yl)-7-oxabicyclo[2.2.1]heptane-2-carboxamide]", "values": [{"measurement": "IC50", "setting": "Chondrocyte, 288 h", "result": 0.055, "unit": "µM"}, {"measurement": "Emax", "setting": "Chondrocyte, 288 h", "result": 74, "unit": "%"}]}, {"compound": "O=C(Nc1cccc(C(F)(F)F)c1)[C@@H]1[C@@H](c2ccnc(C(F)(F)F)c2)[C@H]2O[C@@H]1C[C@@H]2O", "note": "(racemic) [Example 63, rac-(1R,2R,3S,4R,5S)-5-hydroxy-N-(3-(trifluoromethyl)phenyl)-3-(2-(trifluoromethyl)pyridin-4-yl)-7-oxabicyclo[2.2.1]heptane-2-carboxamide]", "values": [{"measurement": "IC50", "setting": "Chondrocyte, 288 h", "result": 18, "unit": "µM"}, {"measurement": "Emax", "setting": "Chondrocyte, 288 h", "result": 44, "unit": "%"}]}, {"compound": "Cc1cc(NC(=O)[C@@H]2[C@@H](c3cccc(C(F)(F)F)c3)[C@H]3O[C@@H]2C[C@@H]3O)cnc1C(F)(F)F", "note": "(racemic) [Example 28, rac-(1R,2R,3S,4R,5S)-5-hydroxy-N-(5-methyl-6-(trifluoromethyl)pyridin-3-yl)-3-(3-(trifluoromethyl)phenyl)-7-oxabicyclo[2.2.1]heptane-2-carboxamide]", "values": [{"measurement": "IC50", "setting": "Chondrocyte, 288 h", "result": 6, "unit": "µM"}, {"measurement": "Emax", "setting": "Chondrocyte, 288 h", "result": 98, "unit": "%"}]}, {"compound": "CCOc1ccc(NC(=O)[C@@H]2[C@@H](c3cccc(C(F)(F)F)c3)[C@H]3O[C@@H]2C[C@@H]3O)cc1C(F)(F)F", "note": "(racemic) [Example 24, rac-(1R,2R,3S,4R,5S)—N-(4-ethoxy-3-trifluoromethyl)phenyl)-5-hydroxy-3-(3-(trifluoromethyl)phenyl)-7-oxabicyclo[2.2.1]heptane-2-carboxamide]", "values": [{"measurement": "IC50", "setting": "Chondrocyte, 288 h", "result": 14, "unit": "µM"}, {"measurement": "Emax", "setting": "Chondrocyte, 288 h", "result": 108, "unit": "%"}]}, {"compound": "COc1cc([C@@H]2[C@@H]3O[C@@H](C[C@H]3O)[C@H]2C(=O)Nc2cc(C(F)(F)F)ccc2C#N)ccn1", "note": "(single isomer, unassigned) [Example 78a, (1R,2R,3S,4R,5)-N-(2-cyano-5-(trifluoromethyl)phenyl)-5-hydroxy-3-(2-methoxypyridin-4-yl)-7-oxabicyclo[2.2.1]heptane-2-carboxamide or (1S,2S,3R,4S,5R)—N-(2-cyano-5-(trifluoromethyl)phenyl)-5-hydroxy-3-(2-methoxypyridin-4-yl)-7-oxabicyclo[2.2.1]heptane-2-carboxamide]", "values": [{"measurement": "IC50", "result": 1.1, "unit": "µM"}, {"measurement": "ALP in NHAC (% Efficacy)", "result": 100, "unit": "%"}]}, {"compound": "Cn1cc([C@H]2[C@H]3O[C@H](C[C@@H]3O)[C@@H]2C(=O)Nc2cccc(C(F)(F)F)c2)c(C(F)(F)F)n1", "note": "(racemic) [Example 32, rac-(1R,2R,3S,4R,5S)-5-hydroxy-3-(1-methyl-3-(trifluoromethyl)-1H-pyrazol-4-yl)-N-(3-(trifluoromethyl)phenyl)-7-oxabicyclo[2.2.1]heptane-2-carboxamide]", "values": [{"measurement": "IC50", "setting": "Chondrocyte, 288 h", "result": 7.2, "unit": "µM"}, {"measurement": "Emax", "setting": "Chondrocyte, 288 h", "result": 78, "unit": "%"}]}]}
